Data reported in US20050107400A1, “Use of pyrazolopyridines as therapeutic compounds” (priority 2001, published 2005).

tested on: HSV-1; experiment: HSV-1 replication in infected Vero 76 cells, DNA hybridization capture assay; format: cell-based, herpes simplex virus 1; settings: Human alphaherpesvirus 1; HSV-1 in Vero 76 cells, MOI=0.001, 40-48 hours at 37° C.; read-out: IC50
Method: a) Tissue Culture and HSV Infection.
Vero 76 cells were maintained in MEM with Earle's salts, L-glutamine, 8% FBS (Hyclone, A-1111-L) and 100 units/mL Penicillin-100 μg/mL Streptomycin. For assay conditions, FBS was reduced to 2%. Cells are seeded into 96-well tissue culture plates at a density of 5×10^4 cells/well after being incubated for 45 min at 37° C. in the presence of HSV-1 or HSV-2 (MOI=0.001). Test compounds are added to the wells and the plates are incubated at 37° C. for 40-48 hours. Cell lysates are prepared as follows: media was removed and replaced with 150 μL/well 0.2 N NaOH with 1% Igepal CA 630 or NP-40. Plates were incubated up to 14 days at room temperature in a humidified chamber to prevent evaporation.
(b) Preparation of Detection DNA.
For the detection probe, a gel-purified, digoxigenin-labeled, […] PCR fragment of the HSV UL-15 sequence was utilized. PCR conditions included 0.5 μM primers, 180 μM dTTP, 20 μM dUTP-digoxigenin (Boehringer Mannheim 1558706), 200 μM each of dATP, dCTP, and dGTP, 1×PCR Buffer II (Perkin Elmer), 2.5 mM MgCl2, 0.025 units/μL of AmpliTaq Gold polymerase (Perkin Elmer), and 5 ng of gel-purified HSV DNA per 100 μL Extension conditions were 10 min at 95° C., followed by 30 cycles of 95° C. for 1 min, 55° C. for 30 sec, and 72° C. for 2 min. The amplification was completed with a 10-min incubation at 72° C. Primers were selected to amplify a 728 bp probe spanning a section of the HSV1 UL15 open reading frame (nucleotides 249-977). Single-stranded transcripts were purified with Promega M13 Wizard kits. The final product was mixed 1:1 with a mixture of 6 M GuSCN, 100 mM EDTA and 200 μg/mL herring sperm DNA and stored at 4° C.
(c) Preparation of Capture Plates.
The capture DNA plasmid (HSV UL13 region in pUC) was linearized by cutting with Xba I, denatured for 15 min at 95° C. and diluted immediately into Reacti-Bind DNA Coating Solution (Pierce, 17250, diluted 1:1 with TE buffer, pH 8) at 1 ng/μL. 75 μL/well were added to Corning (#3922 or 9690) white 96-well plates and incubated at room temperature for at least 4 hrs before washing twice with 300 μL/well 0.2×SSC/0.05% Tween-20 (SSC/T buffer). The plates were then incubated overnight at room temperature with 150 μL/well 0.2 N NaOH, 1% IGEPAL and 10 μg/mL herring sperm DNA.
Twenty-seven (27) μL of cell lysate was combined with 45 μL of hybridization solution (final concentration: 3M GuSCN, 50 mM EDTA, 100 μg/ml salmon sperm DNA, 5×Denhardt's solution, 0.25×APE, and 5 ng of the digoxigenin-labeled detection probe). APE is 1.5 M NH4-acetate, 0.15 M NH4H2 phosphate, and 5 mM EDTA adjusted to pH 6.0. Mineral oil (50 μL) was added to prevent evaporation. The hybridization plates were incubated at 95° C. for 10 minutes to denature the DNA, then incubated at 42° C. overnight. The wells were washed 6× with 300 μL/well SSC/T buffer then incubated with 75 μL/well anti-digoxigenin-HRP-conjugated antibody (Boehringer Mannheim 1207733, 1:5000 in TE) for 30 min at room temperature. The wells were washed 6× with 300 μL/well with PBS/0.05% Tween-20 before 75 μL/well SuperSignal LBA substrate (Pierce) was added. The plates were incubated at room temperature for 30 minutes and chemiluminescence was measured in a Wallac Victor reader.
The following results were obtained for HSV-1.

SMILES	IC50
Cc1c(C(=O)NC2CC2)ccc2c(-c3ccnc(NC4CCCC4)n3)c(-c3ccc(F)cc3)nn12 [Example 83, 3-[2-(Cyclopentylamino)-4-pyrimidinyl]-N-cyclopropyl-2-(4-fluorophenyl)-7-methylpyrazolo[1,5-a]pyridine-6-carboxamide]	1 µM
Fc1ccc(-c2nn3ccccc3c2-c2cc(F)nc(NCc3ccccc3)c2)cc1 [Example 12, N-Benzyl-6-fluoro-4-[2-(4-fluorophenyl)pyrazolo[1,5-a]pyridin-3-yl]-2-pyridinamine]	3.9 µM
Fc1ccc(-c2nn3c(OCC(F)(F)F)cccc3c2-c2ccnc(NC3CC3)n2)cc1 [Example 62, N-Cyclopropyl-4-[2-(4-fluorophenyl)-7-(2,2,2-trifluoroethoxy)pyrazolo [1,5-a]pyridin-3-yl]-2-pyrimidinamine]	2 µM
Nc1nccc(-c2c(-c3ccc(F)cc3)nn3cc(C(F)(F)F)ccc23)n1 [Example 19, 4-[2-(4-Fluorophenyl)-6-trifluoromethylpyrazolo[1,5-a]pyridin-3-yl]-2-pyrimidinamine]	> 40 µM
COc1nccc(-c2c(-c3ccc(F)cc3)nn3c(OCC(F)(F)F)cccc23)n1 [Example 66, 2-(4-Fluorophenyl)-3-(4-(2-methyloxy)pyrimidinyl)-7-(2,2,2-trifluoroethoxy)pyrazolo[1,5-a]pyridine]	25 µM
CCCCCCNc1cc(-c2c(-c3ccc(F)cc3)nn3ccccc23)ccn1 [Example 5, 4-[2-(4-Fluorophenyl)pyrazolo[1,5-a]pyridin-3-yl]-N-hexyl-2-pyridinamine]	5 µM
Fc1ccc(-c2nn3c(OCC(F)(F)F)cccc3c2-c2ccnc(Oc3ccccc3)n2)cc1 [Example 67, 2-(4-Fluorophenyl)-3-(4-(2-phenyloxy)pyrimidinyl)-7-(2,2,2-trifluoroethoxy)pyrazolo[1,5-a]pyridine]	15 µM
OCCCNc1nccc(-c2c(-c3ccc(F)cc3)nn3cc(C(F)(F)F)ccc23)n1 [Example 23, 3-(4-[2-(4-Fluorophenyl)-6-trifluoromethylpyrazolo[1,5-a]pyridin-3-yl]-2-pyrimidinylamino)-1-propanol]	1 µM
Fc1ccc(-c2nn3ccccc3c2-c2ccnc(NCCc3cnc[nH]3)n2)cc1 [Example 26, 4-[2-(4-Fluorophenyl)pyrazolo[1,5-a]pyridin-3-yl]-N-[2-(1H-imidazol-5-yl)ethyl]-2-pyrimidinamine]	0.15 µM
CCOC(OCC)(OCC)c1ccc2c(-c3ccnc(NC4CC4)n3)c(-c3ccc(OC)cc3)nn2c1 [Example 96, N-Cyclopropyl-4-[2-(4-methoxyphenyl)-6-(triethoxymethyl)pyrazolo[1,5-a]pyridin-3-yl]pyrimidin-2-amine]	5.5 µM
COc1ccc(-c2nn3cc(C(F)(F)F)ccc3c2-c2ccnc(NC3CC3)n2)cc1 [Example 95, N-Cyclopropyl-4-[2-(4-methoxyphenyl)-6-(trifluoromethyl)pyrazolo[1,5-a]pyridin-3-yl]pyrimidin-2-amine]	27 µM
CN(C)CCCNc1nccc(-c2c(-c3ccc(F)cc3)nn3cc(C(F)(F)F)ccc23)n1 [Example 90, N^1-{4-[2-(4-Fluorophenyl)-6-trifluoromethylpyrazolo[1,5-a]pyridin-3-yl]pyrimidin-2-yl}-N^3,N^3-dimethylpropane-1,3-diamine]	1.9 µM
OCCNc1cc(-c2c(-c3ccc(F)cc3)nn3ccccc23)ccn1 [Example 9, 2-(4-[2-(4-Fluorophenyl)pyrazolo[1,5-a]pyridin-3-yl]-2-pyridinylamino)-1-ethanol]	2.4 µM
COc1ccc(-c2nn3ccccc3c2-c2ccnc(NC3CCCC3)n2)c(OC)c1 [Example 92, N-Cyclopentyl-4-[2-(2,4-dimethoxyphenyl)pyrazolo[1,5-a]pyridin-3-yl]pyrimidin-2-amine]	20 µM
CCCCNc1nccc(-c2c(-c3ccc(F)cc3)nn3c(CCCC)cccc23)n1 [Example 84, N-Butyl-4-[7-butyl-2-(4-fluorophenyl)pyrazolo[1,5-a]pyridin-3-yl]-2-pyrimidinamine]	0.6 µM
Fc1ccc(-c2nn3ccc(Cl)cc3c2-c2ccnc(NC3CCCC3)n2)cc1 [Example 36, 4-[5-Chloro-2-(4-fluorophenyl)pyrazolo[1,5-a]pyridin-3-yl]-N-cyclopentyl-2-pyrimidinamine]	5 µM
CN(C)c1cc(-c2c(-c3ccc(F)cc3)nn3cccc(F)c23)ccn1 [Example 41, 4-[4-Fluoro-2-(4-fluorophenyl)-pyrazolo[1,5-a]pyridin-3-yl]-N,N-dimethyl-2-pyridinamine]	21.6 µM
Fc1ccc(-c2nn3ccccc3c2-c2ccnc(NCCc3cnc[nH]3)c2)cc1 [Example 1, 4-[2-(4-Fluorophenyl)pyrazolo[1,5-a]pyridin-3-yl]-N-[2-(1H-imidazol-5-yl)ethyl]-2-pyridinamine]	0.7 µM
Fc1ccc(-c2nn3ccc(N4CCOCC4)cc3c2-c2ccnc(NC3CCCC3)n2)cc1 [Example 89, N-Cyclopentyl-4-[2-(4-fluorophenyl)-5-morpholin-4-ylpyrazolo[1,5-a]pyridin-3-yl]pyrimidin-2-amine]	3.6 µM
Fc1ccc(-c2nn3ccc(Cl)cc3c2-c2nc(NC3CCCC3)ncc2Br)cc1 [Example 93, 5-Bromo-4-[5-chloro-2-(4-fluorophenyl)pyrazolo[1,5-a]pyridin-3-yl]-N-cyclopentyl pyrimidin-2-amine]	2.6 µM
CCCNc1cc(-c2c(-c3ccc(F)cc3)nn3ccccc23)ccn1 [Example 8, 4-[2-(4-Fluorophenyl)pyrazolo[1,5-a]pyridin-3-yl]-N-propyl-2-pyridinamine]	2.8 µM
Fc1ccc(-c2nn3ccccc3c2-c2ccnc(NCc3ccccn3)n2)cc1 [Example 28, 4-[2-(4-Fluorophenyl)pyrazolo[1,5-a]pyridin-3-yl]-N-(2-pyridinylmethyl)-2-pyrimidinamine]	0.73 µM
Nc1nccc(-c2c(-c3ccc(F)cc3)nn3ccccc23)n1 [Example 18, 4-[2-(4-Fluorophenyl)pyrazolo[1,5-a]pyridin-3-yl]-2-pyrimidinamine]	5.4 µM
CSc1cc(Cl)cc2c(-c3ccnc(NC4CCCC4)n3)c(-c3cccc(Cl)c3)nn12 [Example 229, 4-[5-Chloro-2-(3-chlorophenyl)-7-(methylsulfanyl)pyrazolo[1,5-a]pyridin-3-yl]-N-cyclopentyl-2-pyrimidinamine]	1 µM
Fc1ccc(-c2nn3cc(CNC4CCCC4)ccc3c2-c2ccnc(NC3CCCC3)n2)cc1 [Example 35, N-Cyclopentyl-4-[6-[(cyclopentylamino)methyl]-2-(4-fluorophenyl)-pyrazolo[1,5-a]pyridin-3-yl]-2-pyrimidinamine]	4.5 µM
CSc1nccc(-c2c(-c3ccc(F)cc3)nn3c(OCC(F)(F)F)cccc23)n1 [Example 59, 2-(4-Fluorophenyl)-3-(4-(2-methylthio)pyrimidinyl)-7-(2,2,2-trifluoroethoxy)pyrazolo[1,5-a]pyridine]	10 µM
COCCNC(=O)c1ccc2c(-c3ccnc(NC4CC4)n3)c(-c3ccc(OC)cc3)nn2c1 [Example 98, 3-[2-(Cyclopropylamino)pyrimidin-4-yl]-N-(2-methoxyethyl)-2-(4-methoxyphenyl)pyrazolo[1,5-a]pyridine-6-carboxamide]	1.1 µM
CCCCNc1cc(-c2c(-c3ccc(F)cc3)nn3ccccc23)ccn1 [Example 2, N-Butyl-4-[2-(4-fluorophenyl)pyrazolo[1,5-a]pyridin-3-yl]-2-pyridinamine]	1.6 µM
NCCCNc1cc(-c2c(-c3ccc(F)cc3)nn3cc(Br)ccc23)ccn1 [Example 15, N-(3-Aminopropyl)-4-[6-bromo-2-(4-fluorophenyl)-pyrazolo[1,5-a]pyridin-3-yl]-2-pyridinamine]	4 µM
